Experimental data taken from US20120284812A1, “Herbicide-Tolerant Plants” (BASF AGROCHEMICAL PRODUCTS, B.V., priority 2009, published 2012).

Key:
rice calli = experiment: Kill curves: tissue survival of rice calli on herbicide media; assay type: cell-based, Oryza sativa; settings: determined by kill curves and observations of continued culture
Description: Once tissue culture conditions were determined, further establishment of selection conditions were established through the analysis of tissue survival in kill curves with cycloxydim, tepraloxydim, sethoxydim (FIG. 1) or haloxyfop (not shown). Careful consideration of accumulation of the herbicide in the tissue, as well as its persistence and stability in the cells and the culture media was performed. Through these experiments, a sub-lethal dose has been established for the initial selection of mutated material.
After the establishment of the starting dose of sethoxydim, cycloxydim, tepraloxydim, and haloxyfop in selection media, the tissues were selected in a step-wise fashion by increasing the concentration of the ACCase inhibitor with each transfer until cells are recovered that grew vigorously in the presence of toxic doses (see FIG. 2). The resulting calli were further subcultured every 3-4 weeks to R001M with selective agent. Over 26,000 calli were subjected to selection for 4-5 subcultures until the selective pressure was above toxic levels as determined by kill curves and observations of continued culture. Toxic levels were determined to be 50 μM sethoxydim, 20 μM cycloxydim, 2.5 μM tepraloxydim (FIG. 1) and 10 μM haloxyfop (not shown).

rice plants = experiment: Greenhouse spray test of regenerants, rated for herbicide injury; assay type: in vivo, Oryza sativa; settings: 400-1600 g ai/ha, 0.1% methylated seed oil, 1 and 2 weeks after treatment
Description: Selected mutants and escapes were transferred to small pots. Wild-type cultivars and 3 biovars of red rice were germinated from seed to serve as controls.
After ca. 3 weeks post-transplant, MO regenerants were sprayed using a track sprayer with 400-1600 g ai/ha cycloxydim (BAS 517H) supplemented with 0.1% methylated seed oil. After the plants had adapted to greenhouse conditions, a subset were sprayed with 800 g ai/ha cycloxydim. Once sprayed, plants were kept on drought conditions for 24 hours before being watered and fertilized again. Sprayed plants were photographed and rated for herbicide injury at 1 (FIG. 3) and 2 weeks after treatment (FIG. 4). […] FIGS. 5-15 provide nucleic acid and/or amino acid sequences of acetyl-Coenzyme A carboxylase enzymes from various plants. FIG. 17 provides a graph showing results for mutant rice versus various ACCase inhibitors.

[1] = tested on: ACCase-inhibitor tolerant rice plants; experiment: Field treatment of ACCase-inhibitor tolerant rice plants; assay type: in vivo; settings: 600 g/ha treatment, data not shown

SMILES	Toxic levels (rice calli)	herbicide injury (rice plants; control plants and tissue culture escapes)	herbicide injury (rice plants; plants containing the I1,781 (Am)L heterozygous mutation)	herbicide tolerance phenotypes in the field [1]
CCCC(=NOCC)C1=C(O)CC(C2CCCSC2)CC1=O (stereo not shown) [cycloxydim]	20 µM	heavily damaged	No injury	exhibited
CC(Oc1ccc(Oc2ncc(C(F)(F)F)cc2Cl)cc1)C(=O)O (stereo not shown) [haloxyfop]	10 µM	–	–	–
CCC/C(=N\OCC)C1=C(O)CC(CC(C)SCC)CC1=O (stereo not shown) [sethoxydim]	50 µM	–	–	–
CC/C(=N\OC/C=C/Cl)C1=C(O)CC(C2CCOCC2)CC1=O (stereo not shown) [tepraloxydim]	2.5 µM	–	–	–
